Measurements taken from patent publication US20130266663A1, “SOX9 INHIBITORS” (priority 2010, published 2013).

How the values were obtained:
SOX9 target genes [1] = experiment: Real-time PCR of SOX9 target genes after SCI, chlorpromazine i.p. once a day for 7 days; format: in vivo, rat
Description: In the context of rodent studies, administration of chlorpromazine was assessed using delivery by intraperitoneal injection (as described in Example 3) and intrathecal miniosmotic pump (as described in Example 5). In summary, three doses of chlorpromazine were given i.p. (2 mg/kg, 4 mg/kg and 6 mg/kg) once a day for 7 days. The rats were then sacrificed and realtime pCR analysis of SOX9, GFAP. XT1, link protein, collagen 2A, aggrecan and brevican was conducted on a spinal cord sample normalizing to 18S.

MCAO mice = experiment: Grip testing after MCAO (stroke model); format: in vivo; conditions: mouse MCAO, 5 mg/kg daily i.p. from 24 hours post-injury
Description: At 3 days and 7 days post-injury, recovery of the damaged side was assessed by grip testing. […] This provides evidence that chemical compounds that modulate SOX9 activity can improve behavioral function following general CNS damage including that associated with spinal cord injury and stroke.
Stroke injury model: A standard MCAO mouse model will be utilized. Briefly, an 11 mm length of monofilament nylon coated with Poly-L-lysine is passed into the common carotid artery, through the internal carotid artery, and past the middle cerebral artery (MCA), effectively occluding the MCA. The loop of suture is tightened down and the mouse allowed to recover in a warm cage. Effective cerebral blood flow reduction is confirmed by a laser-Doppler flowmetry probe (reductions of 70% or better indicating successful occlusion). After 30 minutes for a moderate injury or 60 minutes for a severe injury, the mouse is re-anesthetized and the nylon suture removed allowing reperfusion.

SOX9 target genes [2] = experiment: Q-PCR of SOX9 target gene expression in aged primary astrocyte cultures; format: cell-based, rat
Source text: Another approach to modulating the capacity of calmodulin to transport SOX9 into the nucleus is via competitive inhibition of calmodulin binding. To that effect, a novel peptide (SOX-CAL) was generated to specifically block the calmodulin SOX9 binding site. The SOX-CAL peptide sequence, […] (SEQ ID NO.8), corresponds with the calmodulin binding sequence in SOX9. To ensure the peptide's entry into the cell, it was synthesized fused to the protein transduction domain of the HIV-1 Tat protein. […] This analysis was performed in contrast to the control FLAG-TAT peptide.
Antagonists to TRPV4 cation channel were tested to determine their ability to decrease the activity of SOX9 in astrocytes. The effect of TRPV4 antagonists on SOX9 function was evaluated in cultured rat astrocytes transfected with pGL4.1 4×48 Col2a1. The day after transfection, cells were treated for 24 h with 2-APB (100 μM) or ruthenium red (10 μM) before the luciferase assay was performed. The broad-spectrum transient receptor potential (TRP) channel antagonist 2-APB inhibited SOX9 activity by ˜70%, while the vanniloid subfamily-specific TRP antagonist ruthenium red inhibited SOX9 activity by ˜25%. With respect to SOX9 target genes, Q-PCR analysis of aged primary astrocyte cultures was performed to determine the impact of the TRPV4 antagonists on SOX9. Treatment with ruthenium red specifically reduces aggrecan and Col4a expression by 40% and 50%, respectively (FIG. 6B), while 2-APB reduces XT-1, HAPLN1, aggrecan, Col2a, and Col4a by 50%, 70%, 80%, 50%, and 60% respectively (FIG. 6B, C), in rat primary astrocytes after a 48 hour exposure (n=3). […] Based on the role that the TRP channels serve in modulating calcium levels, and therefore calmodulin activity, the effect of the TRP channel blockers on SOX9 activity appears to be indirect.

Collagen IV = experiment: Western blotting of astrocyte culture protein extract probed with anti-collagen IV; format: cell-based, rat; conditions: 20 uM
SOX9 target genes [3] = experiment: Short-term SOX9 target gene expression (Q-PCR) in injured cord after SCI; format: in vivo; conditions: rat SCI, 2 mg/kg ip 2 hours after injury, sacrificed twelve hours later
Description: To validate the impact of the compounds on relevant conditions in rodents, a short-term experiment was performed to see whether chlorpromazine might reduce SOX9 target gene expression in vivo. […] Twelve hours later the rats were sacrificed and RNA was isolated from a 5 mm segment of their injured cords centered on the lesion. […] Specifically, the decrease in the expression of GFAP indicates a lower level of astrocyte activation.
Twelve hours later the rats were sacrificed and RNA was isolated from a 5 mm segment of their injured cords centered on the lesion.

SOX9 target genes [4] = experiment: Quantitative RT-PCR of SOX9 target genes after SCI, intrathecal miniosmotic pump delivery for 7 days; format: in vivo, rat; conditions: spinal cord-injured rats, 0.35 mg/ml or 3.5 mg/ml
Description: To assess, the intrathecal miniosmotic pump as a means of compound delivery, spinal cord-injured rats received either saline, 0.35 mg/ml or 3.5 mg/ml of chlorpromazine for 7 days. At 7 days the levels of SOX9 target gene expression including GFAP, Brevican, XT-1 and Hapln1 were measured by quantitative RT-PCR as previously described.

[5] = rat SCI, i.p. 2, 4 and 6 mg/kg once a day for 7 days, normalized to 18S

## CN(C)CCCN1c2ccccc2Sc2ccc(Cl)cc21 [chlorpromazine]
SOX9 target genes [1]; at 2 and 4 mg/kg administration, i.p., 7 days
  impact on target gene expression: apparent impact on target gene expression
SOX9 target genes [1]; [5]
  expression of Aggrecan: reduces the expression
  expression of Brevican: reduces the expression
  expression of GFAP: reduces the expression
  expression of HAPLN1: reduces the expression
  expression of SOX9: reduces the expression
  expression of XT-1: reduces the expression
  expression of type 2A Collagen: reduces the expression
MCAO mice; 3 days post injury
  improvement over saline control in grip testing: approximately 15%
MCAO mice; 7 days post injury
  improvement over saline control in grip testing: approximately 20%
SOX9 target genes [2]; 20 uM, 48 hours, vs vehicle
  expression of C4ST: significantly reduced
  expression of XT1: significantly reduced
  expression of XT2: significantly reduced
SOX9 target genes [2]; longer treatments (1 week)
  SOX9 target genes expression: even more profound reductions
Collagen IV
  level of collagen IV (Western blot): reduced level of collagen
SOX9 target genes [3]
  CSPG Aggrecan expression: significant decrease
  Type II collagen expression: reduced
  Type IV collagen expression: reduced
  expression of GFAP: decrease
  expression of scar generating factors: decreased expression
SOX9 target genes [4]
  SOX9 target gene expression including GFAP, Brevican, XT-1 and Hapln1: improved anticipated outcome at 3.5 mg/ml of drug
